Results on one compound are retold here after ChEMBL document CHEMBL1153225 (Bioorg Med Chem Lett, 2010).

This assay relates to RAW264.7. The assay is described as follows: Antiresorptive activity in mouse RAW264.7 cells assessed as inhibition of tartrate-resistant acid phosphatase activity at 60 uM. Also noted: scale not given: the % may be the effect or the level left.

`CCCCC/C(=N/S(=O)(=O)c1ccc(C)cc1)N1C(C)CCCC1C` (stereo unspecified): the Activity is 0%.
